The results in this text go back to US4346087A, “Antibacterial surface active agent containing azaalkenelactam” (priority 1979, dated 1982).

The subject of experiment [1] is Bacillus subtilis ATCC 6633. The experiment in a line: MIC against Bacillus subtilis ATCC 6633. The format is cell-based. The following applies: Bacillus subtilis, ATCC6633, 24 h. The source says:
(§1) Below are described the antibacterial activities of the compounds in the compositions according to this invention. The results of antibacterial activity tests on the N-alkyl-substituted azaalkenelactams and their derivatives having a carboxylate radical of Examples 1 to 70 were as shown in Tables 1 to 3.
(§2) The testing method complied with the standard method of Japan Sociaty of Chemotherapy.

The next experiment deals with Streptococcus faecalis. The experiment in a line: MIC against Streptococcus faecalis. The format is cell-based. The following applies: Enterococcus faecalis.
From the text: as §1, §2

In experiment [2] the test system is Pseudomonas aruginosa IFO 3443. As to the kind of experiment: MIC against Pseudomonas aeruginosa. The format is cell-based. The following applies: Pseudomonas.
From the text: as §1, §2

A further experiment concerns Pasteurella multocida. As to the kind of experiment: MIC against Pasteurella multocida. The format is cell-based. The following applies: Pasteurella multocida; Table 3; heart infusion agar, 37° C., 24 hours; read-out: MIC.
From the text: as §1, §2

A further experiment concerns Salmonella typhinurium. The experiment in a line: microbe, parasite or virus in culture. The format is cell-based, Salmonella typhimurium.
From the text: as §1, §2

Experiment [3] concerns Staphylococcus epidermidis. As to the kind of experiment: MIC against Staphylococcus epidermidis. The following applies: Staphylococcus epidermidis. The format is cell-based.
From the text: as §1, §2

The test system of experiment [4] is Desulfovibrio desulfuricans IFO 13699. As to the kind of experiment: MIC against Desulfovibrio desulfuricans. The format is cell-based. The following applies: Desulfovibrio desulfuricans.
From the text: (§3) Below are described the antibacterial activities of the compounds in the compositions according to this invention.
as §2

The test system of experiment [5] is Staphylococcus aureus FDA 209P. The experiment in a line: MIC against Staphylococcus aureus FDA 209P. The format is cell-based. The following applies: Staphylococcus aureus, FDA209P.
From the text: as §3, §2

A further experiment relates to Escherichia coli NIHJ. As to the kind of experiment: MIC against Escherichia coli NIHJ. The format is cell-based. The following applies: Escherichia coli.
From the text: as §3, §2

[6] abbreviates: Table 3, heart infusion agar, 37° C., 24 hours, read-out: MIC.
Where [7] appears, read: Table 1, azaalkenelactams, heart infusion agar, 37° C., 24 hours, read-out: MIC.

≈ marks a conversion by molar mass, not a printed value. Where two headings read alike, the source gives them in different places. Some results are limits rather than exact numbers.

With `CCCCCCCCCCCCCCNCCN1CC[N+](CC(=O)[O-])=C(C)CC1=O` [4-tetradecylaminoethyl-7-methyl-1-azonia-4-azacyclohept-7-en-5-one-1-acetate], the MIC in [1] was found to be 12.5 mg/L (≈ 29.5 µM); in the experiment on Streptococcus faecalis (24 h), 6.25 mg/L (≈ 14.8 µM); in [2] (IFO3443, 24 h), 100 mg/L (≈ 236 µM); with Pasteurella multocida it was 3.12 mg/L (≈ 7.36 µM); against Salmonella typhinurium (24 h), 6.25 mg/L (≈ 14.8 µM); in [3] (setting [6]), 3.12 mg/L (≈ 7.36 µM). The MIC in experiment [4] (IFO13699, Table 2, derivatives having a carboxylate radical, heart infusion agar, 37° C., 24 hours, read-out: MIC) is 3.12 mg/L (≈ 7.36 µM); in [5] (Table 2, derivatives having a carboxylate radical, heart infusion agar, 37° C., 24 hours, read-out: MIC), 3.12 mg/L (≈ 7.36 µM); against Escherichia coli NIHJ (24 h), 100 mg/L (≈ 236 µM).

Consider `CCCCCCCCCCCCCCC(O)CNCCN1CCCN=CC(C)(C)C1=O` (stereo not drawn) [Example 61, 1-(2-hydroxyhexadecyl)aminoethyl-3,3-dimethyl-6,7,8-trihydro-1,5-diazocin-5-one], for which the MIC in [1] was 3.12 mg/L (≈ 7.13 µM); in the experiment on Streptococcus faecalis (24 h), 6.25 mg/L (≈ 14.3 µM); in experiment [2] (IFO3443, 24 h), 200 mg/L (≈ 457 µM); in the experiment with Pasteurella multocida it was less than 1.56 mg/L; with Salmonella typhinurium (setting [6]), 3.12 mg/L (≈ 7.13 µM); in [3] (setting [6]), 1.56 mg/L (≈ 3.56 µM). Further, the MIC in [4] (IFO13699, 24 h) turned out to be 6.25 mg/L (≈ 14.3 µM); in experiment [5] (24 h), 6.25 mg/L (≈ 14.3 µM); with Escherichia coli NIHJ (24 h), 25 mg/L (≈ 57.1 µM).

For the compound `CCCCCCCCCCCCCCC(O)CNCCN1CCN=CC(C)(C)C1=O` (stereo not drawn) [Example 59, 4-(2-hydroxyhexadecyl)aminoethyl-6,6-dimethyl-3-hydro-2H-1,4-diazepin-5-one], the MIC in experiment [1] is 3.12 mg/L (≈ 7.36 µM); with Streptococcus faecalis (setting [6]), 6.25 mg/L (≈ 14.8 µM); in [2] (IFO3443, Table 3, heart infusion agar, 37° C., 24 hours, read-out: MIC) it was 100 mg/L (≈ 236 µM); in the experiment on Pasteurella multocida, less than 1.56 mg/L; with Salmonella typhinurium (setting [6]), 3.12 mg/L (≈ 7.36 µM); in experiment [3] (setting [6]) it was 1.56 mg/L (≈ 3.68 µM). Moreover, the MIC is 3.12 mg/L (≈ 7.36 µM) in [4] (IFO13699, Table 1, azaalkenelactams, heart infusion agar, 37° C., 24 hours, read-out: MIC); 6.25 mg/L (≈ 14.8 µM) in experiment [5] (setting [7]); 25 mg/L (≈ 59 µM) in the experiment with Escherichia coli NIHJ (setting [7]).

Take `CCCCCCCCCCCC(=O)NCCN1CCN=C(C)CC1=O` [Example 9, 4-lauramidoethyl-7-methyl-3,6-dihydro-2H-1,4-diazepin-5-one]: the MIC stood at 25 mg/L (≈ 71.1 µM) in experiment [1]; 12.5 mg/L (≈ 35.6 µM) in the experiment on Streptococcus faecalis (24 h); 100 mg/L (≈ 284 µM) in experiment [2] (IFO3443, 24 h); 3.12 mg/L (≈ 8.88 µM) in the experiment with Pasteurella multocida; 6.25 mg/L (≈ 17.8 µM) against Salmonella typhinurium (24 h); 6.25 mg/L (≈ 17.8 µM) in [3] (24 h). Further, the MIC amounted to 6.25 mg/L (≈ 17.8 µM) in [4] (IFO13699, 24 h); 12.5 mg/L (≈ 35.6 µM) in experiment [5] (24 h); 25 mg/L (≈ 71.1 µM) with Escherichia coli NIHJ (24 h).

As for `CCCCCCCCCCCCCCNCCN1CCCN=CC(C)(C)C1=O` [Example 60, 1-tetradecylaminoethyl-3,3-dimethyl-6,7,8-trihydro-1,5-diazocin-5-one], the MIC in experiment [1] is 3.12 mg/L (≈ 7.93 µM); against Streptococcus faecalis (24 h) it was 6.25 mg/L (≈ 15.9 µM); in experiment [2] (IFO3443, 24 h), 100 mg/L (≈ 254 µM); with Pasteurella multocida, less than 1.56 mg/L; in the experiment on Salmonella typhinurium (setting [6]), 3.12 mg/L (≈ 7.93 µM); in [3] (setting [6]), 1.56 mg/L (≈ 3.96 µM). Moreover, the MIC in experiment [4] (IFO13699, 24 h) was 6.25 mg/L (≈ 15.9 µM); in experiment [5] (24 h) it was 6.25 mg/L (≈ 15.9 µM); in the experiment on Escherichia coli NIHJ (24 h) it was 12.5 mg/L (≈ 31.8 µM).

Regarding `CCCCCCCCCCCCCCC(O)CNCCN1CCN=CCC(C)C1=O` (stereo not drawn) [Example 66, 4-(2-hydroxyhexadecyl)aminoethyl-6-methyl-2,3,6,7-tetrahydro-1,4-diazocin-5-one], the MIC is 6.25 mg/L (≈ 14.8 µM) in experiment [1]; 6.25 mg/L (≈ 14.8 µM) in the experiment with Streptococcus faecalis (24 h); 200 mg/L (≈ 472 µM) in experiment [2] (IFO3443, 24 h); less than 1.56 mg/L in the experiment with Pasteurella multocida; 3.12 mg/L (≈ 7.36 µM) in the experiment with Salmonella typhinurium (setting [6]); 1.56 mg/L (≈ 3.68 µM) in [3] (setting [6]). Also, the MIC turned out to be 12.5 mg/L (≈ 29.5 µM) in experiment [4] (IFO13699, 24 h); 12.5 mg/L (≈ 29.5 µM) in experiment [5] (24 h); 25 mg/L (≈ 59 µM) in the experiment with Escherichia coli NIHJ (24 h).

Turning to `CCCCCCCCCCCC(=O)NCCN1CC[N+](CC(=O)[O-])=C(C)CC1=O` [4-lauramidoethyl-7-methyl-1-azonia-4-azacyclohept-7-en-5-one-1-acetate], the MIC in experiment [1] is 50 mg/L (≈ 122 µM); in the experiment on Streptococcus faecalis (24 h), 12.5 mg/L (≈ 30.5 µM); in [2] (IFO3443, 24 h) it was 200 mg/L (≈ 488 µM); in the experiment with Pasteurella multocida, less than 1.56 mg/L; against Salmonella typhinurium (24 h), 6.25 mg/L (≈ 15.3 µM); in experiment [3] (24 h), 12.5 mg/L (≈ 30.5 µM). The MIC in [4] (IFO13699, 24 h) turned out to be 12.5 mg/L (≈ 30.5 µM); in [5] (24 h), 50 mg/L (≈ 122 µM); in the experiment on Escherichia coli NIHJ (24 h), 100 mg/L (≈ 244 µM).

In the case of `CCCCCCCCCCCCCCNCCN1CCN=CCC(C)C1=O` (stereo not drawn) [Example 65, 4-tetradecylaminoethyl-6-methyl-2,3,6,7-tetrahydro-1,4-diazocin-5-one], the MIC in [1] is 3.12 mg/L (≈ 8.22 µM); in the experiment with Streptococcus faecalis (24 h), 6.25 mg/L (≈ 16.5 µM); in experiment [2] (IFO3443, 24 h), 100 mg/L (≈ 263 µM); in the experiment with Pasteurella multocida it was less than 1.56 mg/L; with Salmonella typhinurium (setting [6]), 3.12 mg/L (≈ 8.22 µM); in experiment [3] (setting [6]), 1.56 mg/L (≈ 4.11 µM). Moreover, the MIC in [4] (IFO13699, 24 h) is 6.25 mg/L (≈ 16.5 µM); in [5] (setting [7]), 3.12 mg/L (≈ 8.22 µM); in the experiment with Escherichia coli NIHJ (24 h), 12.5 mg/L (≈ 32.9 µM).
